Assays:
[1] = tested on: human embryonic stem cell derived neural stem cells (NSCs); assay: Neural stem cell proliferation assay (neurogenesis assay, ATP levels by CellTiterGlo); format: cell-based; settings: Homo sapiens, Neural stem cell, 96 h; compound concentration at which 150% activity of control (100%) is reached; NSC proliferation by ATP (CellTiterGlo) after 4 days incubation; dose response 8 μM to 8 nM
Method: Neural Stem Cell Proliferation Assay
Neurogenic properties of small molecules are determined based on the proliferation of human embryonic stem cell derived neural stem cells (NSCs) which were derived via a dual smad inhibition as previously described (Chambers, S. M., et al., Highly efficient neural conversion of human ES and iPS cells by dual inhibition of SMAD signaling, Nature biotechnology, 2009. 27(3): p. 275-80.)
Compounds respond is measured by the increase in cells based on ATP levels (Promega:CellTiterGlo®) after an incubation period of 4 days.
NSCs are thawed and expanded over 3 passages. On the 14th day, NSCs are seeded in Polyornithin/Laminin coated 384 well plates at a cell density of 21,000 cells/cm^2 in a media volume of 38 μl.
4 hours after cell seeding, compound solutions are added at a volume of 2 μl. Stock solutions of the compounds (water, 5% DMSO) are diluted to obtain a dose response (11 points, dilution factor is 2), ranging from 8 μM to 8 nM. Controls are run to consistently determine the neurogenic properties of the cells: • Negative (neutral) control is cell culture Media (final DMSO concentration: 0.25%). • Positive controls are: • 1. cell culture Media+100 ng/ml FGF2 (final DMSO concentration: 0.1%) • 2. cell culture Media+20 ng/ml EGF (final DMSO concentration: 0.1%) • 3. cell culture Media+100 ng/ml Wnt3a (final DMSO concentration: 0.1%)
After 4 days incubation at 37° C., 5% CO2, the amount of ATP per well is quantified. The ATP concentration is proportional to the cell number. ATP is quantified by using the Promega CellTiterGlo® kit. The CellTiterGlo® reagents contain a cell lysis buffer, a thermo stable luciferase (UltraGlo™ recombinant luciferase), magnesium and luciferin. Luciferin reacts with ATP producing oxyluciferin, AMP and light. The luminescence signal is proportional to the ATP content.
The value of negative (neutral) control is determined for each assay plate by taking the average of 16 negative control wells. The neurogenic compound response is calculated for each compound as (compound/Negative Control)*100.
The values of EC150 from the dose response curve are determined for each test compound. The EC150 is the compound concentration at which 150% activity of control (100%) is reached.

Row | Compound | melting point | EC (150% of control) [1]
1 | N#Cc1cc(-c2ccc(Cl)cc2)c2[nH]c(C(N)=O)cc2c1 [Example 35, 7-(4-Chlorophenyl)-5-cyano-1H-indole-2-carboxamide] | 267.5 °C | 0.021 µM
2 | N#Cc1cc(-c2ccc(C(F)(F)F)cc2)c2[nH]c(C(N)=O)cc2c1 [Example 36, 5-Cyano-7-[4-(trifluoromethyl)phenyl]-1H-indole-2-carboxamide] | 277.5 °C | 0.1 µM
3 | Cn1c(C(N)=O)cc2cc(C#N)cc(-c3ccc(C(F)(F)F)cc3)c21 [Example 37, 5-Cyano-1-methyl-7-[4-(trifluoromethyl)-phenyl]-indole-2-carboxamide] | 171 °C | 2.62 µM
4 | Cn1c(C(N)=O)cc2cc(C#N)cc(-c3ccc(F)cc3)c21 [Example 38, 5-Cyano-7-(4-fluorophenyl)-1-methylindole-2-carboxamide] | 203.5 °C | 0.19 µM
5 | Cn1c(C(N)=O)cc2cc(C#N)cc(-c3ccc(Cl)cc3)c21 [Example 39, 7-(4-Chlorophenyl)-5-cyano-1-methylindole-2-carboxamide] | 176 °C | 0.18 µM
6 | Cn1c(C(N)=O)cc2cc(C#N)cc(-c3ccc(F)c(F)c3)c21 [Example 40, 5-Cyano-7-(3,4-difluorophenyl)-1-methylindole-2-carboxamide] | 184.5 °C | 0.2 µM
7 | N#Cc1cc(-c2ccc(F)cc2F)c2[nH]c(C(N)=O)cc2c1 [Example 41, 5-Cyano-7-(2,4-difluorophenyl)-1H-indole-2-carboxamide] | 289.5 °C | 0.025 µM
8 | N#Cc1cc(-c2ccc(Cl)cc2Cl)c2[nH]c(C(N)=O)cc2c1 [Example 42, 5-Cyano-7-(2,4-dichlorophenyl)-1H-indole-2-carboxamide] | 276.5 °C | 0.047 µM
9 | N#Cc1ccc(-c2cc(C#N)cc3cc(C(N)=O)[nH]c23)cc1 [Example 43, 5-Cyano-7-(4-cyanophenyl)-1H-indole-2-carboxamide] | 299 °C | 0.2 µM
10 | N#Cc1cc(-c2ccc(OC(F)(F)F)cc2)c2[nH]c(C(N)=O)cc2c1 [Example 44, 5-Cyano-7-[4-(trifluoromethoxy)-phenyl]-1H-indole-2-carboxamide] | 247 °C | 0.17 µM
11 | Cc1c(C(N)=O)[nH]c2c(-c3ccc(F)cc3)cc(F)cc12 [Example 45, 5-Fluoro-7-(4-fluorophenyl)-3-methyl-1H-indole-2-carboxamide] | 219 °C | 0.068 µM
12 | Cc1c(C(N)=O)[nH]c2c(-c3ccc(Cl)cc3)cc(F)cc12 [Example 46, 7-(4-Chlorophenyl)-5-fluoro-3-methyl-1H-indole-2-carboxamide] | 230 °C | 0.066 µM
13 | Cc1c(C(N)=O)[nH]c2c(-c3ccc(F)c(F)c3)cc(F)cc12 [Example 47, 7-(3,4-Difluorophenyl)-5-fluoro-3-methyl-1H-indole-2-carboxamide] | 208 °C | 0.052 µM
14 | Cc1c(C(N)=O)[nH]c2c(-c3ccc(C(F)(F)F)cc3)cc(F)cc12 [Example 48, 5-Fluoro-3-methyl-7-[4-(trifluoromethyl)-phenyl]-1H-indole-2-carboxamide] | 200 °C | 0.11 µM
15 | Cc1c(C(N)=O)n(C)c2c(-c3ccc(F)cc3)cc(F)cc12 [Example 49, 5-Fluoro-7-(4-fluorophenyl)-1,3-dimethylindole-2-carboxamide] | 202 °C | 0.17 µM
16 | Cc1c(C(N)=O)n(C)c2c(-c3ccc(Cl)cc3)cc(F)cc12 [Example 50, 7-(4-Chlorophenyl)-5-fluoro-1,3-dimethylindole-2-carboxamide] | 210 °C | 0.12 µM
17 | Cc1c(C(N)=O)n(C)c2c(-c3ccc(C(F)(F)F)cc3)cc(F)cc12 [Example 51, 5-Fluoro-1,3-dimethyl-7-[4-(trifluoromethyl)-phenyl]-indole-2-carboxamide] | 222 °C | 0.13 µM
18 | Cc1c(C(N)=O)n(C)c2c(-c3ccc(F)c(F)c3)cc(F)cc12 [Example 52, 7-(3,4-Difluorophenyl)-5-fluoro-1,3-dimethylindole-2-carboxamide] | 186 °C | 0.7 µM

Second part, led by results:

Row | melting point | Compound | EC (150% of control) [1]
19 | 230 °C | Cc1c(C(N)=O)[nH]c2c(-c3ccc(C#N)cc3)cc(F)cc12 [Example 53, 7-(4-Cyanophenyl)-5-fluoro-3-methyl-1H-indole-2-carboxamide] | 0.04 µM
20 | 108 °C | Cc1c(C(N)=O)[nH]c2c(-c3ccc(OC(F)(F)F)cc3)cc(F)cc12 [Example 54, 5-Fluoro-3-methyl-7-[4-(trifluoromethoxy)phenyl]-1H-indole-2-carboxamide] | 0.2 µM
21 | 200 °C | Cc1c(C(N)=O)[nH]c2c(-c3ccc(F)cc3F)cc(F)cc12 [Example 55, 7-(2,4-Difluorophenyl)-5-fluoro-3-methyl-1H-indole-2-carboxamide] | 0.026 µM
22 | 198 °C | Cc1c(C(N)=O)[nH]c2c(-c3ccc(Cl)cc3Cl)cc(F)cc12 [Example 56, 7-(2,4-Dichlorophenyl)-5-fluoro-3-methyl-1H-indole-2-carboxamide] | 0.027 µM
23 | 286.5 °C | N#Cc1cc(-c2ccc(Cl)cc2F)c2[nH]c(C(N)=O)cc2c1 [Example 57, 7-(4-Chloro-2-fluorophenyl)-5-cyano-1H-indole-2-carboxamide] | 0.066 µM
24 | 192 °C | Cn1c(C(N)=O)cc2cc(C#N)cc(-c3ccc(Cl)cc3F)c21 [Example 58, 7-(4-Chloro-2-fluorophenyl)-5-cyano-1-methylindole-2-carboxamide] | 1.67 µM
25 | 245 °C | Cc1c(C(N)=O)n(C)c2c(-c3ccc(C#N)cc3)cc(F)cc12 [Example 59, 7-(4-Cyanophenyl)-5-fluoro-1,3-dimethylindole-2-carboxamide] | 0.083 µM
26 | 171 °C | Cc1c(C(N)=O)n(C)c2c(-c3ccc(OC(F)(F)F)cc3)cc(F)cc12 [Example 60, 5-Fluoro-1,3-dimethyl-7-[4-(trifluoromethoxy)phenyl]indole-2-carboxamide] | 0.22 µM
27 | 169 °C | Cc1c(C(N)=O)n(C)c2c(-c3ccc(Cl)cc3Cl)cc(F)cc12 [Example 61, 7-(2,4-Dichlorophenyl)-5-fluoro-1,3-dimethylindole-2-carboxamide] | 0.21 µM
28 | 206.5 °C | Cn1c(C(N)=O)cc2cc(C#N)cc(-c3ccc(F)cc3F)c21 [Example 62, 5-Cyano-7-(2,4-difluorophenyl)-1-methylindole-2-carboxamide] | 0.12 µM
29 | 222.5 °C | Cn1c(C(N)=O)cc2cc(C#N)cc(-c3ccc(Cl)cc3Cl)c21 [Example 63, 5-Cyano-7-(2,4-dichlorophenyl)-1-methylindole-2-carboxamide] | 0.21 µM
30 | 192 °C | Cc1c(C(N)=O)n(C)c2c(-c3ccc(F)cc3F)cc(F)cc12 [Example 64, 7-(2,4-Difluorophenyl)-5-fluoro-1,3-dimethylindole-2-carboxamide] | 0.091 µM
31 | 247 °C | Cc1cc(-c2cc(C#N)cc3cc(C(N)=O)[nH]c23)ccc1F [Example 66, 5-Cyano-7-(4-fluoro-3-methylphenyl)-1H-indole-2-carboxamide] | 0.62 µM
32 | 236 °C | Cn1c(C(N)=O)cc2cc(C#N)cc(-c3ccc([N+](=O)[O-])cc3)c21 [Example 67, 5-Cyano-1-methyl-7-(4-nitrophenyl)-indole-2-carboxamide] | 2.05 µM
33 | 269 °C | N#Cc1cc(-c2ccc([N+](=O)[O-])cc2)c2[nH]c(C(N)=O)cc2c1 [Example 68, 5-Cyano-7-(4-nitrophenyl)-1H-indole-2-carboxamide] | 0.071 µM
34 | 297 °C | N#Cc1cc(-c2ccnc(Cl)c2)c2[nH]c(C(N)=O)cc2c1 [Example 70, 7-(2-Chloropyridin-4-yl)-5-cyano-1H-indole-2-carboxamide] | 0.14 µM
